In patent US20230017045A1, “PYRIDINE AND PYRIMIDINE CARBOXYLATE HERBICIDES AND METHODS OF USE THEREOF” (Dow AgroSciences LLC, priority 2017, published 2023):

These molecules were tested on test plant species (assay: Post-emergent herbicidal activity test (greenhouse, foliar spray, visual growth reduction)). Settings: post-emergence, 336 h, ECHCG: barnyardgrass (Echinochloa crus-galli), 140 g ai/ha, 14 days after application, read-out: Visual Growth Reduction (%) 14 Days After Application, ECHCG.
Format: in vivo
Procedure, shortened: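 Seedlings were raised 7-21 d in a greenhouse under a 15 h photoperiod until the first or second true leaf. Each compound, dissolved in acetone:DMSO 97:3 and diluted into a surfactant-containing spray mixture, was then applied at 187 L/ha. Plants were subirrigated, and growth reduction was scored visually at 14 d.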
`O=C(O)c1nc(-c2ccc(C(F)(F)F)c(Cl)c2)ccc1Cl` [F314, 3-Chloro-6-(3-chloro-4-(trifluoromethyl)phenyl) picolinic acid] was tested, and the pest or weed control at 140 g/ha was 0 to 29%.
`COC(=O)c1nc(-c2ccc(N)cc2)c(F)cc1Cl` [F247, Methyl 6-(4-aminophenyl)-3-chloro-5-fluoropicolinate] showed a pest or weed control at 140 g/ha of 0 to 29%.

Same assay, conditions: post-emergence, 336 h, IPOHE: ivy-leaf morning glory (Ipomoea hederacea), 140 g ai/ha, 14 days after application, read-out: Visual Growth Reduction (%) 14 Days After Application, IPOHE
`O=C(O)c1nc(-c2ccc(C(F)(F)F)c(Cl)c2)ccc1Cl` [F314, 3-Chloro-6-(3-chloro-4-(trifluoromethyl)phenyl) picolinic acid] gave a pest or weed control at 140 g/ha of 95 to 100%.
With `COC(=O)c1nc(-c2ccc(N)cc2)c(F)cc1Cl` [F247, Methyl 6-(4-aminophenyl)-3-chloro-5-fluoropicolinate] the pest or weed control at 140 g/ha was 0 to 29%.

Same assay, conditions: post-emergence, 336 h, KCHSC: kochia (Bassia scoparia), 140 g ai/ha, 14 days after application, read-out: Visual Growth Reduction (%) 14 Days After Application, KCHSC
`O=C(O)c1nc(-c2ccc(C(F)(F)F)c(Cl)c2)ccc1Cl` [F314, 3-Chloro-6-(3-chloro-4-(trifluoromethyl)phenyl) picolinic acid] gave a pest or weed control at 140 g/ha of 0 to 29%.
For `COC(=O)c1nc(-c2ccc(N)cc2)c(F)cc1Cl` [F247, Methyl 6-(4-aminophenyl)-3-chloro-5-fluoropicolinate], the pest or weed control at 140 g/ha was 0 to 29%.

Same assay, conditions: post-emergence, 336 h, ORYSA: rice (Oryza sativa), 140 g ai/ha, 14 days after application, read-out: Visual Growth Reduction (%) 14 Days After Application, ORYSA
With `O=C(O)c1nc(-c2ccc(C(F)(F)F)c(Cl)c2)ccc1Cl` [F314, 3-Chloro-6-(3-chloro-4-(trifluoromethyl)phenyl) picolinic acid] the pest or weed control at 140 g/ha was 0 to 29%.
In the case of `COC(=O)c1nc(-c2ccc(N)cc2)c(F)cc1Cl` [F247, Methyl 6-(4-aminophenyl)-3-chloro-5-fluoropicolinate], the pest or weed control at 140 g/ha is reported as 0 to 29%.

Same assay, conditions: post-emergence, 336 h, SETFA: giant foxtail (Setaria faberi), 140 g ai/ha, 14 days after application, read-out: Visual Growth Reduction (%) 14 Days After Application, SETFA
`O=C(O)c1nc(-c2ccc(C(F)(F)F)c(Cl)c2)ccc1Cl` [F314, 3-Chloro-6-(3-chloro-4-(trifluoromethyl)phenyl) picolinic acid] gave a pest or weed control at 140 g/ha of 0 to 29%.
`COC(=O)c1nc(-c2ccc(N)cc2)c(F)cc1Cl` [F247, Methyl 6-(4-aminophenyl)-3-chloro-5-fluoropicolinate] was tested, and the pest or weed control at 140 g/ha was 0 to 29%.

Same assay, conditions: post-emergence, 336 h, SORVU: grain sorghum (Sorghum vulgare), 140 g ai/ha, 14 days after application, read-out: Visual Growth Reduction (%) 14 Days After Application, SORVU
Molecule `O=C(O)c1nc(-c2ccc(C(F)(F)F)c(Cl)c2)ccc1Cl` [F314, 3-Chloro-6-(3-chloro-4-(trifluoromethyl)phenyl) picolinic acid] has a pest or weed control at 140 g/ha of 75 to 84%.
Work on `COC(=O)c1nc(-c2ccc(N)cc2)c(F)cc1Cl` [F247, Methyl 6-(4-aminophenyl)-3-chloro-5-fluoropicolinate] yielded a pest or weed control at 140 g/ha of 0 to 29%.

Same assay, conditions: post-emergence, 336 h, STEME: common chickweed (Stellaria media), 140 g ai/ha, 14 days after application, read-out: Visual Growth Reduction (%) 14 Days After Application, STEME
`O=C(O)c1nc(-c2ccc(C(F)(F)F)c(Cl)c2)ccc1Cl` [F314, 3-Chloro-6-(3-chloro-4-(trifluoromethyl)phenyl) picolinic acid] was tested, and the pest or weed control at 140 g/ha was 0 to 29%.
Molecule `COC(=O)c1nc(-c2ccc(N)cc2)c(F)cc1Cl` [F247, Methyl 6-(4-aminophenyl)-3-chloro-5-fluoropicolinate] has a pest or weed control at 140 g/ha of 0 to 29%.

Same assay, conditions: post-emergence, 336 h, TRZAS: wheat, spring (Triticum aestivum), 140 g ai/ha, 14 days after application, read-out: Visual Growth Reduction (%) 14 Days After Application, TRZAS
Molecule `O=C(O)c1nc(-c2ccc(C(F)(F)F)c(Cl)c2)ccc1Cl` [F314, 3-Chloro-6-(3-chloro-4-(trifluoromethyl)phenyl) picolinic acid] has a pest or weed control at 140 g/ha of 0 to 29%.
`COC(=O)c1nc(-c2ccc(N)cc2)c(F)cc1Cl` [F247, Methyl 6-(4-aminophenyl)-3-chloro-5-fluoropicolinate] showed a pest or weed control at 140 g/ha of 0 to 29%.

Same assay, conditions: post-emergence, 336 h, blackgrass (Alopecurus myosuroides), 14 Days After Application, 140 g ai/ha, read-out: Visual Growth Reduction (%) ALOMY
For `O=C(O)c1nc(-c2ccc(C(F)(F)F)c(Cl)c2)ccc1Cl` [F314, 3-Chloro-6-(3-chloro-4-(trifluoromethyl)phenyl) picolinic acid], the pest or weed control at 140 g/ha was 0 to 29%.
Molecule `COC(=O)c1nc(-c2ccc(N)cc2)c(F)cc1Cl` [F247, Methyl 6-(4-aminophenyl)-3-chloro-5-fluoropicolinate] has a pest or weed control at 140 g/ha of 0 to 29%.

Same assay, conditions: post-emergence, 336 h, canada thistle (Cirsium arvense), 14 Days After Application, 140 g ai/ha, read-out: Visual Growth Reduction (%) CIRAR
`O=C(O)c1nc(-c2ccc(C(F)(F)F)c(Cl)c2)ccc1Cl` [F314, 3-Chloro-6-(3-chloro-4-(trifluoromethyl)phenyl) picolinic acid] gave a pest or weed control at 140 g/ha of 45 to 59%.
`COC(=O)c1nc(-c2ccc(N)cc2)c(F)cc1Cl` [F247, Methyl 6-(4-aminophenyl)-3-chloro-5-fluoropicolinate] was tested, and the pest or weed control at 140 g/ha was 0 to 29%.

Same assay, conditions: post-emergence, 336 h, crabgrass (Digitaria sanguinalis), 14 Days After Application, 140 g ai/ha, read-out: Visual Growth Reduction (%) DIGSA
Work on `O=C(O)c1nc(-c2ccc(C(F)(F)F)c(Cl)c2)ccc1Cl` [F314, 3-Chloro-6-(3-chloro-4-(trifluoromethyl)phenyl) picolinic acid] yielded a pest or weed control at 140 g/ha of 75 to 84%.
For `COC(=O)c1nc(-c2ccc(N)cc2)c(F)cc1Cl` [F247, Methyl 6-(4-aminophenyl)-3-chloro-5-fluoropicolinate], the pest or weed control at 140 g/ha was 0 to 29%.

Same assay, conditions: post-emergence, 336 h, lambsquarters (Chenopodium album), 14 Days After Application, 140 g ai/ha, read-out: Visual Growth Reduction (%) CHEAL
`O=C(O)c1nc(-c2ccc(C(F)(F)F)c(Cl)c2)ccc1Cl` [F314, 3-Chloro-6-(3-chloro-4-(trifluoromethyl)phenyl) picolinic acid] was tested, and the pest or weed control at 140 g/ha was 30 to 44%.
`COC(=O)c1nc(-c2ccc(N)cc2)c(F)cc1Cl` [F247, Methyl 6-(4-aminophenyl)-3-chloro-5-fluoropicolinate] showed a pest or weed control at 140 g/ha of 60 to 74%.

Same assay, conditions: post-emergence, 336 h, redroot pigweed (Amaranthus retroflexus), 14 Days After Application, 140 g ai/ha, read-out: Visual Growth Reduction (%) AMARE
`O=C(O)c1nc(-c2ccc(C(F)(F)F)c(Cl)c2)ccc1Cl` [F314, 3-Chloro-6-(3-chloro-4-(trifluoromethyl)phenyl) picolinic acid] gave a pest or weed control at 140 g/ha of 0 to 29%.
`COC(=O)c1nc(-c2ccc(N)cc2)c(F)cc1Cl` [F247, Methyl 6-(4-aminophenyl)-3-chloro-5-fluoropicolinate] showed a pest or weed control at 140 g/ha of 0 to 29%.

Same assay, conditions: post-emergence, 336 h, wild oat (Avena fatua), 14 Days After Application, 140 g ai/ha, read-out: Visual Growth Reduction (%) AVEFA
For `O=C(O)c1nc(-c2ccc(C(F)(F)F)c(Cl)c2)ccc1Cl` [F314, 3-Chloro-6-(3-chloro-4-(trifluoromethyl)phenyl) picolinic acid], the pest or weed control at 140 g/ha was 0 to 29%.
With `COC(=O)c1nc(-c2ccc(N)cc2)c(F)cc1Cl` [F247, Methyl 6-(4-aminophenyl)-3-chloro-5-fluoropicolinate] the pest or weed control at 140 g/ha was 0 to 29%.

Same assay, conditions: post-emergence, 336 h, yellow nutsedge (Cyperus esculentus), 14 Days After Application, 140 g ai/ha, read-out: Visual Growth Reduction (%) CYPES
`O=C(O)c1nc(-c2ccc(C(F)(F)F)c(Cl)c2)ccc1Cl` [F314, 3-Chloro-6-(3-chloro-4-(trifluoromethyl)phenyl) picolinic acid] was tested, and the pest or weed control at 140 g/ha was 0 to 29%.
`COC(=O)c1nc(-c2ccc(N)cc2)c(F)cc1Cl` [F247, Methyl 6-(4-aminophenyl)-3-chloro-5-fluoropicolinate] was tested, and the pest or weed control at 140 g/ha was 0 to 29%.
